From US20130005747A1, “METHOD FOR SELECTING A CANCER THERAPY” (Cyclacel Limited, priority 2010, published 2013)

What was measured:
Assay in all cases: Fractional growth, 72 h seliciclib
Format in all cases: cell-based, human
[1] = tested on: HCC38; details: HCC38 (Breast), 15 μM seliciclib
Text: (§1) A total of 270 human cancer cell lines from diverse cancer histopathologic types were investigated.

[2] = tested on: 143B; details: 143B (Bone), 15 μM seliciclib
Text: as §1

[3] = tested on: B-CPAP; details: B-CPAP (Thyroid), 15 μM seliciclib
Text: as §1

[4] = tested on: HARA; details: HARA (Lung: NSCLC), 15 μM seliciclib
Text: as §1

[5] = tested on: NAE; details: NAE (Skin), 15 μM seliciclib
Text: as §1

[6] = tested on: HGC-27; details: HGC-27 (Stomach), 15 μM seliciclib
Text: as §1

[7] = tested on: MGH-MC-1; details: MGH-MC-1 (Skin), 15 μM seliciclib
Text: as §1

[8] = tested on: KP-4; details: KP-4 (Pancreas), 15 μM seliciclib
Text: as §1

[9] = tested on: T.T; details: T.T (Esophagus), 15 μM seliciclib
Text: as §1

[10] = tested on: HT115; details: HT115 (Intestine), 15 μM seliciclib
Text: as §1

[11] = tested on: NCI-H1568; details: NCI-H1568 (Lung: NSCLC), 15 μM seliciclib
Text: as §1

[12] = tested on: U-2 OS; details: U-2 OS (Bone), 15 μM seliciclib
Text: as §1

[13] = tested on: EN; details: EN (Uterus), 15 μM seliciclib
Text: as §1

[14] = tested on: LU99C; details: LU99C (Lung: NSCLC), 15 μM seliciclib
Text: as §1

[15] = tested on: Ca Ski; details: Ca Ski (Cervix), 15 μM seliciclib
Text: as §1

[16] = tested on: RVH-421; details: RVH-421 (Skin), 15 μM seliciclib
Text: as §1

[17] = tested on: C-4 II; details: C-4 II (Cervix), 15 μM seliciclib
Text: as §1

[18] = tested on: COLO 205; details: COLO 205 (Intestine), 15 μM seliciclib
Text: as §1

[19] = tested on: NCI-H2228; details: NCI-H2228 (Lung: NSCLC), 15 μM seliciclib
Text: as §1

[20] = tested on: HDQ-P1; details: HDQ-P1 (Breast), 15 μM seliciclib
Text: as §1

[21] = tested on: M-14; details: M-14 (Skin), 15 μM seliciclib
Text: as §1

[22] = tested on: KP-3L; details: KP-3L (Pancreas), 15 μM seliciclib
Text: as §1

[23] = tested on: UO-31; details: UO-31 (Kidney), 15 μM seliciclib
Text: as §1

[24] = tested on: COLO-680N; details: COLO-680N (Esophagus), 15 μM seliciclib
Text: as §1

[25] = tested on: NCI-H647; details: NCI-H647 (Lung: NSCLC), 15 μM seliciclib
Text: as §1

[26] = tested on: H2722; details: H2722 (Lung), 15 μM seliciclib
Text: as §1

[27] = tested on: HMCB; details: HMCB (Skin), 15 μM seliciclib
Text: as §1

[28] = tested on: 5637; details: 5637 (Bladder), 15 μM seliciclib
Text: as §1

[29] = tested on: CS1R; details: CS1R (Bone), 15 μM seliciclib
Text: as §1

[30] = tested on: XPA-4; details: XPA-4 (Pancreas), 15 μM seliciclib
Text: as §1

[31] = tested on: SW620; details: SW620 (Intestine), 15 μM seliciclib
Text: as §1

[32] = tested on: A-427; details: A-427 (Lung: NSCLC), 15 μM seliciclib
Text: as §1

[33] = tested on: JHU-013; details: JHU-013 (Head & Neck), 15 μM seliciclib
Text: as §1

[34] = tested on: LU65A; details: LU65A (Lung: NSCLC), 15 μM seliciclib
Text: as §1

[35] = tested on: LS174T; details: LS174T (Intestine), 15 μM seliciclib
Text: as §1

[36] = tested on: BFTC-905; details: BFTC-905 (Bladder), 15 μM seliciclib
Text: as §1

[37] = tested on: BPH-1; details: BPH-1 (Prostate), 15 μM seliciclib
Text: as §1

[38] = tested on: LUDLU-1; details: LUDLU-1 (Lung: NSCLC), 15 μM seliciclib
Text: as §1

For CC[C@H](CO)Nc1nc(NCc2ccccc2)c2ncn(C(C)C)c2n1 [seliciclib, roscovitine], the “Fractional Growth” value [1] was 0.8297, the “Fractional Growth” value [2] was 0.6124 and the “Fractional Growth” value [3] was 0.5754. The “Fractional Growth” value [4] was 0.6182, the “Fractional Growth” value [5] was 0.3413 and the “Fractional Growth” value [6] was 0.2806. The “Fractional Growth” value [7] was 0.4543, the “Fractional Growth” value [8] was 0.5607 and the “Fractional Growth” value [9] was 0.1271. The “Fractional Growth” value [10] was 0.4837, the “Fractional Growth” value [11] was 0.3317 and the “Fractional Growth” value [12] was 0.5686. For the same molecule, the “Fractional Growth” value [13] was 0.1503, the “Fractional Growth” value [14] was 0.3864 and the “Fractional Growth” value [15] was 0.591. For the same molecule, the “Fractional Growth” value [16] was 0.4165, the “Fractional Growth” value [17] was 0.7489 and the “Fractional Growth” value [18] was 0.4437. For the same molecule, the “Fractional Growth” value [19] was 0.6493, the “Fractional Growth” value [20] was 0.8137 and the “Fractional Growth” value [21] was 0.3765. For the same molecule, the “Fractional Growth” value [22] was 0.4338, the “Fractional Growth” value [23] was 0.3152 and the “Fractional Growth” value [24] was 0.6838. The “Fractional Growth” value [25] was 0.4521, the “Fractional Growth” value [26] was 0.8974 and the “Fractional Growth” value [27] was 0.161. For the same molecule, the “Fractional Growth” value [28] was 0.6151, the “Fractional Growth” value [29] was 0.2923 and the “Fractional Growth” value [30] was 0.3444. The “Fractional Growth” value [31] was 0.7486, the “Fractional Growth” value [32] was 0.4252 and the “Fractional Growth” value [33] was 0.2699. For the same molecule, the “Fractional Growth” value [34] was 0.4627, the “Fractional Growth” value [35] was 0.3713 and the “Fractional Growth” value [36] was 0.4198. The “Fractional Growth” value [37] was 0.6039 and the “Fractional Growth” value [38] was 0.7029.
